Data on ten compounds can be found in PubChem BioAssay (NCI).

What all share (experiment): inhibition of tumour cell growth, NCI panel, 48 h
Test [1] relates to SK-MEL-5 melanoma.
For test [2], the system named is SF-295 CNS.
In test [3] the test system is OVCAR-5 ovarian.
Test [4] concerns TK-10 renal.
The subject of test [5] is NCI-H522 lung.
The subject of test [6] is KM12 colon.
Test [7] relates to M14 melanoma.
Test [8] concerns SF-539 CNS.
The test system of test [9] is A549 NSCLC.
Test [10] relates to SNB-19 CNS.

Several values for one entry are separate records, joined by “and”; a condition that tells them apart may be missing. Equal entries are not always repeated.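 Each compound was tested at five concentrations against cells in 96-well plates for 48 hours. At the GI50, growth is halved. TGI denotes the concentration required for complete inhibition of growth.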

On to `Cn1cc(CO)c2c1C(=O)C=C(N1CC1)C2=O`, for which the GI50 in test [1] is under 0.01 µM; in [2], under 0.01 µM; in [3], 0.0365 µM; in [4], 0.0215 µM; in [5], under 0.01 µM; in test [6] it was 0.0145 µM. Moreover, the GI50 in [7] was under 0.01 µM; in test [8] it was under 0.01 µM; in [9], under 0.01 µM; in [10], under 0.0197 µM. Also, the TGI in test [1] is under 0.01 µM; in test [3], 4.79 µM; in test [5], 0.0775 µM; in [6] it was 0.0855 µM; in test [7], under 0.01 µM; in test [8], under 0.01 µM. The TGI was 3.68 µM in [9] and 0.862 µM in test [10].

In the case of `CCCCCCNC(=O)c1cc(NCc2cc(O)ccc2O)ccc1O`, the GI50 in [1] was 11.8 µM; in [2], 19.4 µM; in test [3] it was 6.63 µM; in test [4], 10.7 µM; in [5] it was 0.265 µM; in test [6] it was 11.5 µM. The GI50 in test [7] is 11.1 µM; in [8], 1.91 µM; in [9], 23.5 µM; in test [10], 14.9 µM. Also, the TGI was 25.4 µM in test [1]; 49.2 µM in test [2]; 20.8 µM in test [3]; 23.1 µM in [4]; 0.752 µM in test [5]; 29 µM in test [6]. Besides, the TGI in [7] came to 25.2 µM; in [8], 6.06 µM; in test [9] it was 71.5 µM; in test [10] it was 28.6 µM.

Turning to `CCN(CC)CCC(CNc1ccnc2cc(Cl)ccc12)c1ccc(OC)cc1` (centres undefined), the GI50 was 1.64 µM in test [1]; 2.87 µM and 1.95 µM in test [2]; 11.6 µM and 5.65 µM in [3]; 3.97 µM and 1.99 µM in test [4]; 3.29 µM and 2.16 µM in [5]; 12.8 µM and 5.62 µM in test [6]. In addition, the GI50 in [7] is 1.86 µM and 1.88 µM; in [8], 1.56 µM and 1.7 µM; in test [9], 16.3 µM and 11.3 µM; in test [10], 10.3 µM and 11 µM. In addition, the TGI was 3.09 µM in test [1]; 10.2 µM and 7.8 µM in test [2]; 32.2 µM and 38.6 µM in test [3]; 14.2 µM and 5.15 µM in test [4]; 13.1 µM and 8.47 µM in test [5]; 28.6 µM and 21.5 µM in test [6]. For the same compound, the TGI in test [7] is 3.61 µM and 3.73 µM; in test [8], 3.17 µM and 3.6 µM; in test [9], 32.5 µM and 26.1 µM; in [10], 29 µM and 29.9 µM.

With `CCCN=C(N)NC#N`, the TGI in test [1], in test [2], in test [3], in test [4], in test [5] and in [6] was over 100 µM in each case. Besides, the TGI in test [7], in test [8], in test [9] and in test [10] was over 100 µM throughout.

Regarding `O=C(O)CCC(=O)c1ccc[nH]1`, the TGI in [1], in [2], in test [3], in [4], in test [5] and in test [6] was over 100 µM throughout. The TGI in test [7], in test [8], in [9] and in test [10] was over 100 µM in each case.

Consider `C=COCCCOc1ccccc1`, for which the TGI in test [1], in test [2], in test [3], in test [4], in test [5] and in [6] was over 100 µM each time. The TGI in test [7], in test [8], in test [9] and in [10] was over 100 µM in each case. Further, the GI50 in [2] is over 100 µM.

For the compound `[Cl][Hg][c]1cc(Br)cc(Br)c1`, the GI50 in test [1] is 1.54 µM; in test [2] it was 3.31 µM; in test [3] it was 2.8 µM; in test [4] it was 2.9 µM; in [5], 0.493 µM; in [6] it was 2.78 µM. For the same compound, the GI50 in test [7] is 2.12 µM; in test [8], 1.65 µM; in test [9] it was 12.9 µM; in [10], 1.2 µM. Besides, the TGI in test [1] was found to be 3.04 µM; in [2], 15.7 µM; in test [3] it was 5.65 µM; in test [4] it was 6.35 µM; in [5] it was 2.27 µM; in [6], 11.8 µM. In addition, the TGI in [7] was 6.32 µM; in [8] it was 3.31 µM; in test [9] it was 30.4 µM; in test [10], 2.51 µM.

As to `O=S1(=O)C[C@H](O)[C@H](O)CS1`, the TGI in test [1], in test [2], in test [3], in test [4], in test [5] and in test [6] was over 100 µM throughout. Moreover, the TGI in test [7], in test [8], in test [9] and in [10] was over 100 µM throughout.

`O=C(Nc1ccc(Cl)cc1F)c1ccccc1O`: the GI50 was 1.69 µM in test [1]; 2.35 µM in test [2]; 3.04 µM in [3]; 4.54 µM in [4]; 2.45 µM in [5]; 2.97 µM in test [6]. Further, the GI50 was 3.45 µM in test [7], 2.94 µM in [8], 3.6 µM in test [9] and 3.23 µM in test [10]. In addition, the TGI is 3.48 µM in [1]; 5.87 µM in test [2]; over 100 µM in [3]; 47.1 µM in test [4]; 30 µM in [5]; 20.3 µM in [6]. In addition, the TGI in [7] was 16.7 µM; in test [8], 18.5 µM; in test [9], over 100 µM; in test [10], over 100 µM.

`CC(C)N(C(=O)C12C3C4C5(C#N)C3C1(C#N)C5C42I)C(C)C` (centres undefined): the TGI in test [1], in test [2], in test [3], in test [4], in [5] and in [6] was over 100 µM throughout. Besides, the TGI in test [7], in test [8], in test [9] and in test [10] was over 100 µM in each case.
